Where a name gives a salt, the structure may show the parent alone.
Test system: pituitary cells (growth hormone release)
Experiment: GH release promoting activity in cultured rat pituitary cells (GH level of supernatant by RIA)
Format: cell-based, rat (Wistar/ST)
Details: compound concentration 10000 nM, 15 min at 37° C.
Method: Benzimidazolidinone derivatives of the present invention were evaluated for their growth hormone (GH) release promoting activity by reference to the method described in a literature (R. G. Smith et al., Science, 260, 1640 (1993)).
Pituitary glands removed from 7-week-old male Wistar/ST rats were washed three times with HBSS(−) and the tissue was minced into small pieces (ca. 1 mm square) using a pair of scissors. The tissues were transferred to a 15 ml round-bottom centrifuge tube and washed three times with HBSS(−) (10 ml). An enzyme solution (0.1 ml per one pituitary gland) was added and enzymatic digestion was started in a water bath at 37° C. During the process, the mixture was pipetted every 5 minutes and the treatment was continued for ca 20-30 min until the cells were dispersed. The resulting cell suspension was centrifuged at 1200 rpm for 2-3 min at room temperature and the supernatant was discarded. A culture medium (8 ml) was added. Similar procedure was repeated twice and the dispersed cells were washed. The cells were plated in a 96-well plate (1×10^4 cells/100 μl/well) and incubation was started at 37° C. under 5% CO2 atmosphere.
Three days after the start of the culture, the supernatant was discarded and an assay medium was added. The cells were incubated for 1.5 h and washed once with the assay medium. A test compound solution was added and the cells were reacted at 37° C. for 15 min in an incubator under 5% CO2. The supernatant was recovered and the GH level thereof was measured by RIA.
A sample (50 μl) diluted with RIA buffer (1% BSA, 0.1% NaN3 and 25 mM EDTA/PBS (pH 7.6)), [^125I]-labeled GH solution (50 μl, ca. 10,000 cpm), and rabbit antiserum (diluted 1,000-fold) against rat GH (50 μl, Biogenesis Co) were placed in each well of a 96-well plate for RIA (Coster Co) and the mixture was reacted for 3 days at 4° C. Cell membrane fractions containing protein A were added and the mixture was allowed to stand for 20 min and centrifuged. The supernatant was recovered and the precipitates were washed with the RIA buffer. The ^125I amount was measured. The GH level of the sample was calculated from the standard curve drawn using the standard GH.
The composition of the culture medium was DMEM containing 10% horse serum, 2.5% fetal bovine serum, 1% nonessential amino acids, 1% antibiotics. The composition of the assay medium was 25 mM HEPES/culture medium (pH 7.3). The test compound solution was prepared by adding a compound solution (1 μl), adjusted to 1000-fold concentration with DMSO, to an assay medium (1 ml). Collagenase (400 mg), DNase type I (1 mg), and BSA (1 g) were dissolved in a 25 mM HEPES buffer (pH 7.4, 40 ml) containing 0.8% NaCl, 0.037% KCl, 0.9% glucose, 1% streptomycin-penicillin and 0.7 mM Na2HPO4, and 1 mg/ml CaCl2 (226 μl) was added. The resulting solution was adjusted to a final volume of 50 ml by adding a HEPES buffer and sterilized by filtration through a 0.22 μm filter and used as the enzyme solution.
The GH release promoting activity of the compounds of Examples is shown in the following. For the activity, the ratio of GH level of the supernatant in the presence of the test compound (compound concentration 10000 nM) to GH level of supernatant in the absence of the compound (GH level of supernatant in the presence of the compound/GH level of supernatant in the absence of the compound).

First: CCN(CC)CCn1c(=O)n(Cc2cccc(Cl)c2)c2c(C(F)(F)F)cc(C(N)=O)cc21 [Example 3, 1-(3-chlorobenzyl)-3-[2-(diethylamino)ethyl]-2-oxo-7-(trifluoromethyl)-2,3-dihydro-1H-benzimidazole-5-carboxamide trifluoroacetate]
Second: CCN(CC)CCn1c(=O)n(Cc2cccc(C(F)(F)F)c2)c2c(C(F)(F)F)cc(C(N)=O)cc21 [Example 9, 3-[2-(diethylamino)ethyl]-2-oxo-7-(trifluoromethyl)-1-[3-(trifluoromethyl)benzyl]-2,3-dihydro-1H-benzimidazole-5-carboxamide trifluoroacetate]
The “GH release promoting activity = (GH level of supernatant in the presence of the compound)/(GH level of supernatant in the absence of the compound)” value (shortened to “GH release promoting activity =”) of the first is lower: 1.2 for the first, 1.3 for the second.

Going from `CCN(CC)CCn1c(=O)n(Cc2ccccc2Cl)c2c(C(F)(F)F)cc(C(N)=O)cc21` [Example 5, 1-(2-chlorobenzyl)-3-[2-(diethylamino)ethyl]-2-oxo-7-(trifluoromethyl)-2,3-dihydro-1H-benzimidazole-5-carboxamide trifluoroacetate] to `CCN(CC)CCn1c(=O)n(Cc2ccccc2C)c2c(C(F)(F)F)cc(C(N)=O)cc21` [Example 16, 3-[2-(diethylamino)ethyl]-1-(2-methylbenzyl)-2-oxo-7-(trifluoromethyl)-2,3-dihydro-1H-benzimidazole-5-carboxamide trifluoroacetate], the “GH release promoting activity =” value falls from 1.3 to 1.0.

Going from `CCN(CC)CCn1c(=O)n(-c2ccc(Cl)cc2)c2c(C(F)(F)F)cc(C(N)=O)cc21` [Example 7, 1-(4-chlorophenyl)-3-[2-(diethylamino)ethyl]-2-oxo-7-(trifluoromethyl)-2,3-dihydro-1H-benzimidazole-5-carboxamide trifluoroacetate] to `CCN(CC)CCn1c(=O)n(-c2ccc(Cl)cc2Cl)c2c(C(F)(F)F)cc(C(N)=O)cc21` [Example 8, 1-(2,4-dichlorophenyl)-3-[2-(diethylamino)ethyl]-2-oxo-7-(trifluoromethyl)-2,3-dihydro-1H-benzimidazole-5-carboxamide trifluoroacetate], the “GH release promoting activity =” value falls from 3.0 to 2.1.

Reference: patent US6939887B2, “Benzimidazolidinone derivatives” (Sumitomo Pharmaceuticals Co., Ltd., priority 2001, dated 2005)
